Test results taken from patent US20240025904A1, “PDE9 INHIBITORS FOR TREATING CARDIAC FAILURE” (Cardurion Pharmaceuticals, Inc., priority 2020, published 2024).
Where “and” joins values, the source holds several entries; their conditions need not be identical. Identical values can stand only once.

How the values were obtained:
[1] = test system: aldosterone-infused and unilateral nephrectomized mouse (neph-aldo model of HFpEF); assay: Uninephrectomy + d-aldosterone infusion + 1% NaCl mouse model of HFpEF; assay type: in vivo
Source text: Mice subjected to uninephrectomy and aldosterone infusion for 4 to 6 weeks, accompanied by 1% NaCl intake, develop HFpEF with moderate hypertension, concentric left ventricle hypertrophy, pulmonary congestion, and echocardiographic evidence of diastolic dysfunction while maintaining a normal/preserved LVEF. These mice also show exercise impairment. At the molecular level, left ventricle tissue from these mice show an increase in natriuretic peptides, cardiac size and fibrosis, as well as an increase in the oxidative stress.
Model 1: eight-week-old C57BL/6J male mice were anesthetized with 100 mg/kg ketamine and 10 mg/kg xylazine intraperitoneally. All mice underwent unilateral nephrectomy and then will receive a continuous infusion of d-aldosterone (0.30 μg/h) via osmotic minipumps. All mice were maintained on 1.0% sodium chloride drinking water. Mice were randomized to receive either vehicle or Compound 1 at 60 mg/kg/day or 100 mg/kg/day by oral gavage for 4 or 6 weeks (36 mice, N=6/group). The mice were housed in a standard-temperature, 12 h/12 h light/dark controlled room, with water and standard rodent diet available ad libitum. Mice were euthanized 4 or 6 weeks after the beginning of the treatment. It has been shown that administering of 60 mg/kg of Compound 1 in mice is equivalent to administering about 4.8 mg/kg of Compound 1 in adult human subjects. Similarly, it has been shown that administering 100 mg/kg of Compound 1 in mice is equivalent to administering about 8.1 mg/kg of Compound 1 in human subjects.
(§1) Methods: Cardiac and renal responses to Compound 1 (60 mg/kg, 100 mg/kg) compared with vehicle were examined over 6-8 weeks in 3 adult male mouse models of HFpEF (1.5 mg/kg/d angiotensin-II infusion [ang-II]; uninephrectomy+0.30 μg/h d-aldosterone infusion+1% NaCl drinking water [neph-aldo]; and db/db [db]). Phenotyping included wheat germ agglutinin staining for cardiomyocyte cross-sectional area (CSA); RT-PCR for myocardial PDE9, natriuretic peptide, inflammatory and fibrosis marker transcript abundances; ELISA for plasma natriuretic peptides; and urinary albumin to creatinine ratio (UACR).
(§2) P-value from Wilcoxon rank-sum test. Ang-II model (8-week old C57BL/6 mice were infused with ang-II at […] for 6 weeks with concomitant Compound 1 or vehicle). Neph+d-aldo+1% NaCl model (8-week old C57BL/6 mice underwent uninephrectomy then were infused with d-aldosterone for 6 weeks with ad-libitum 1% NaCl drinking water while receiving concomitant Compound 1 or vehicle). db model (20-week old BKS.Cg-Dock7m+/+Leprdb/J received vehicle or Compound 1 for 8 weeks). mRNA expression levels were normalized to GAPDH, Rpl4 and Eef1e1.

db/db mouse = db/db mouse model of HFpEF; assay type: in vivo
Source text: The db/db leptin receptor-deficient mouse has a point mutation in the diabetes (db) gene encoding the leptin receptor, which spontaneously causes morbid obesity accompanied by severe hyperglycemia secondary to type 2 diabetes. […] At the histological level, these mice hearts have enlarged cardiomyocytes, evidence of fibrosis, and capillary rarefaction. The db/db mice appear to represent the obese/metabolic HFpEF phenotype, with evidence of HF, whereas LVEF is preserved.
Model 3: twenty-week old male diabetic-prone, obese db/db mice of the BKS.Cg-Dock7m+/+Leprdb/J strain will be randomly assigned (30 mice, n=10/group) to receive vehicle or chronic Compound 1 treatment at 60 mg/kg/day or 100 mg/kg/day. Treatment will be carried for 8 weeks using subcutaneous osmotic pumps. The mice will be housed in a standard-temperature, 12 h/12 h light/dark controlled room, with water and standard rodent diet available ad libitum.
as §1, §2

patient = assay: Administration with food, adverse event profile; assay type: in vivo; conditions: once a day with food
[2] = test system: angiotensin II-infused mouse (Ang-II model of HFpEF); assay: Angiotensin II infusion mouse model of HFpEF; assay type: in vivo
Source text: C57BL/6J mice develop compensatory concentric hypertrophy and fibrosis in response to angiotensin II. Pulmonary congestion, as well as exercise intolerance, are evident and seem to be related to angiotensin II-induced skeletal muscle abnormalities, including impaired mitochondrial function and skeletal muscle atrophy. In summary, if strain and dosage are optimized to mirror the human HFpEF phenotype, angiotensin II infusion appears to be a relevant HFpEF model.
Model 2: eight-week-old C57BL/6J male mice were anesthetized with isoflurane and subcutaneously implanted with an osmotic minipump to continuously infuse angiotensin II in 10 mM acetic acid at a dose of 1.5 mg/kg per day over a period of 4 to 6 weeks. Experimental animal groups were randomly assigned to receive either vehicle or Compound 1 at 60 mg/kg/day or 100 mg/kg/day by oral gavage for 4 or 6 weeks (36 mice, N=6/group) over the same time period. The mice were housed in a standard-temperature, 12 h/12 h light/dark controlled room, with water and standard rodent diet available ad libitum. Mice were euthanized 4 or 6 weeks after angiotensin-II infusion. It has been shown that administering of 60 mg/kg of Compound 1 in mice is equivalent to administering about 4.8 mg/kg of Compound 1 in adult human subjects. Similarly, it has been shown that administering 100 mg/kg of Compound 1 in mice is equivalent to administering about 8.1 mg/kg of Compound 1 in human subjects.
as §1, §2

[3] = test system: adult patients with sickle cell disease; assay: IMR-SCD-102 Phase 2a trial, plasma NT-proBNP; assay type: in vivo, human
Procedure: IMR-SCD-102 is an ongoing Phase 2a randomized double-blind placebo-controlled trial testing Compound 1 (IMR-687) at 50 mg-200 mg daily as monotherapy or 50-100 mg in combination with background hydroxyurea therapy (Compound 1+HU). A protocol amendment later in the study allowed for sample collection and characterization of NT-proBNP levels in the combination cohort (Compound 1+HU versus HU alone). Plasma NT-proBNP was measured in 15 subjects (100% HbSS genotype) at randomization and again at 4 months. A 2:1 randomization schema favoring combination treatment translated to 10 subjects on Compound 1+HU and 5 on HU alone. Baseline, 4-month follow-up, and change in NT-proBNP levels were quantified. Further, whether the change in NT-proBNP level varied according to treatment and baseline NT-proBNP level was tested.

[4] = median, Neph + Aldo model, 6 weeks
[5] = median, Neph + Aldo model, 6 weeks, normalized to GAPDH, Rpl4 and Eef1e1
[6] = median, db/db model, 8 weeks, normalized to GAPDH, Rpl4 and Eef1e1
[7] = median, Ang-II model, 6 weeks, normalized to GAPDH, Rpl4 and Eef1e1

SMILES: C[C@@H]1CN(Cc2ncccn2)C[C@H]1c1cn2c(C3CCOCC3)ncc2c(=O)[nH]1 (single isomer, unassigned) [Compound 1]
- heart size and cardiomyocyte hypertrophy ([1]; after 4 weeks of dosing at 60 and 100 mg/kg, FIGS. 2A, 2B): decreases
- ANP and BNP markers of cardiac dysfunction ([1]; dosing with 60 and 100 mg/kg, FIGS. 3A, 3B right side): decreases
- PDE5 and PDE9 expression ([1]; in combination with nephrectomy-aldosterone, FIG. 4B): increased
- heart fibrosis (TGF-ß1 and downstream targets Fibronectin and Collagen type I and III) ([1]; in combination with nephrectomy-aldosterone, FIG. 7): decreases
- markers of myocardial inflammation ([1]; in combination with nephrectomy-aldosterone, FIG. 8B): decreases
- Plasma ANP [1, 4]: 740 pg/mL
- Plasma BNP [1, 4]: 1216 pg/mL
- Urine UACR (urinary albumin to creatinine ratio) [1, 4]: 48.4 µg/mg
- Myocardial mRNA PDE9 ([1]; median, Neph + Aldo model, 6 weeks, Compound 1 60 mg/kg, 100 mg/kg, normalized to GAPDH, Rpl4 and Eef1e1): 3.7
- Myocardial mRNA COL3A1 [1, 5]: 2.6
- Myocardial mRNA IL-1b [1, 5]: 2.5
- Myocardial mRNA NPPA [1, 5]: 4.9
- Myocardial mRNA NPPB [1, 5]: 4.2
- Heart rate and blood pressure, Compound 1 vs vehicle treated mice ([1]; neph-aldo model): did not differ
- reduction of median cardiomyocyte size (CSA) compared with vehicle ([1]; neph-aldo model, Compound 1 60 mg/kg, 100 mg/kg, p<0.003): 58%
- Heart rate and blood pressure, Compound 1 vs vehicle treated mice (db/db mouse; db model): did not differ
- reduction of median cardiomyocyte size (CSA) compared with vehicle (db/db mouse; db model, Compound 1 60 mg/kg, 100 mg/kg, p<0.003): 35%
- Plasma ANP (db/db mouse; median, db/db model, 8 weeks): 714 pg/mL
- Plasma BNP (db/db mouse; median, db/db model, 8 weeks): 830 pg/mL
- Urine UACR (urinary albumin to creatinine ratio) (db/db mouse; median, db/db model, 8 weeks): 132.5 µg/mg
- Myocardial mRNA PDE9 (db/db mouse; median, db/db model, 8 weeks, Compound 1 60 mg/kg, 100 mg/kg, normalized to GAPDH, Rpl4 and Eef1e1): 1.5
- Myocardial mRNA COL3A1 (db/db mouse; [6]): 1.1
- Myocardial mRNA IL-1b (db/db mouse; [6]): 3.6
- Myocardial mRNA NPPA (db/db mouse; [6]): 1.7
- Myocardial mRNA NPPB (db/db mouse; [6]): 2.2
- effect of food on adverse event profile (nausea, emesis, headache) (patient): reduce the adverse event profile dramatically
- heart size and cardiomyocyte hypertrophy ([2]; 6 weeks of dosing at 60 and 100 mg/kg, FIGS. 1A, 1B): decreases
- Heart rate and blood pressure, Compound 1 vs vehicle treated mice ([2]; ang-II model): did not differ
- reduction of median cardiomyocyte size (CSA) compared with vehicle ([2]; ang-II model, Compound 1 60 mg/kg, 100 mg/kg, p<0.003): 54%
- ANP and BNP markers of cardiac dysfunction ([2]; dosing with 60 and 100 mg/kg, FIGS. 3A, 3B left side): decreases
- PDE5 and PDE9 expression ([2]; in combination with Angiotensin II, FIG. 4A): increased
- markers of myocardial inflammation ([2]; in combination with Angiotensin II, FIG. 8A): decreases
- heart fibrosis (TGF-ß1 and downstream targets Fibronectin and Collagen type I and III) ([2]; in combination with Angiotensin II, FIGS. 6A, 6B): decreases
- Plasma ANP ([2]; median, Ang-II model, 6 weeks): 968 pg/mL
- Plasma BNP ([2]; median, Ang-II model, 6 weeks): 2376 pg/mL
- Urine UACR (urinary albumin to creatinine ratio) ([2]; median, Ang-II model, 6 weeks): 95.5 µg/mg
- Myocardial mRNA PDE9 ([2]; median, Ang-II model, 6 weeks, Compound 1 60 mg/kg, 100 mg/kg, normalized to GAPDH, Rpl4 and Eef1e1): 1.7
- Myocardial mRNA COL3A1 [2, 7]: 1.5
- Myocardial mRNA IL-1b [2, 7]: 1.9
- Myocardial mRNA NPPA [2, 7]: 1.4
- Myocardial mRNA NPPB [2, 7]: 2.0

SMILES: NC(=O)NO [HU, hydroxyurea]
- treated subjects with greater than 50% reduction in NT-proBNP levels ([3]; at 4 months): none
- mean 4-month follow-up NT-proBNP level ([3]; plasma, 4 months): 436 pg/mL
- mean NT-proBNP higher at 4 months than baseline ([3]; plasma, 4 months): 27.0% and 27. %
- mean increase of NT-proBNP, baseline to 4 months ([3]; plasma, 4 months): 93 pg/mL
- mean baseline NT-proBNP level ([3]; plasma, at randomization): 343 pg/mL
- average increase in NT-proBNP between baseline and 4 months ([3]; subjects with baseline NT-proBNP ≥400 pg/ml): 28%
